Results on 7 compounds are retold here after ChEMBL document CHEMBL4028859, “Inhibition of Calcium Dependent Protein Kinase 1 (CDPK1) by Pyrazolopyrimidine Analogs Decreases Establishment and Reoccurrence of Central Nervous System Disease by Toxoplasma gondii” (J Med Chem, 2017).

Data set [1] can be described thus: Apparent permeability from apical to basolateral side in human Caco2 cells at 5 uM by LC-MS/MS analysis. Type of data set: ADME, cell-based. Particulars: caco-2, 5 µM.
Data set [2] can be described thus: Apparent permeability from basolateral to apical side in human Caco2 cells at 5 uM by LC-MS/MS analysis. Type of data set: ADME, cell-based. As to conditions: caco-2, 5 µM.
Data set [3] in a line: Dissociation constant, pKa of compound. Type of data set: physicochemical.
For data set [4], the system named is Mus musculus. Put plainly: (§1) Tmax in Swiss albino mouse at 10 mg/kg, po administered as single dose by LC-MS/MS analysis. As to conditions: in vivo. The data set is classed as ADME, organism-based.
The nature of data set [5]: Initial concentration in Swiss albino mouse at 3 mg/kg, iv administered as single dose by LC-MS/MS analysis. As to conditions: in vivo. Type of data set: ADME, organism-based.
For data set [6], the system named is Mus musculus. Put plainly: (§2) Cmax in Swiss albino mouse at 10 mg/kg, po administered as single dose by LC-MS/MS analysis. The data set is classed as ADME, organism-based. Also on record: dose 10 mg/kg, route oral. As to conditions: in vivo.
Data set [7] concerns Mus musculus. Put plainly: (§3) AUClast in Swiss albino mouse at 3 mg/kg, iv administered as single dose by LC-MS/MS analysis. Particulars: in vivo. Set-up: dose 3 mg/kg, time 0 - last, route intravenous. Type of data set: ADME, organism-based.
Data set [8] has as its system Mus musculus. Put plainly: (§4) AUClast in Swiss albino mouse at 10 mg/kg, po administered as single dose by LC-MS/MS analysis. The data set is classed as ADME, organism-based. Also on record: dose 10 mg/kg, route oral, time 0 - last. Particulars: in vivo.
The test system of data set [9] is Mus musculus. Put plainly: (§5) AUC (infinity) in Swiss albino mouse at 3 mg/kg, iv administered as single dose by LC-MS/MS analysis. As to conditions: in vivo. The data set is classed as ADME, organism-based. Also on record: dose 3 mg/kg, time infinity, route intravenous.
Data set [10] concerns Mus musculus. Put plainly: (§6) AUC (infinity) in Swiss albino mouse at 10 mg/kg, po administered as single dose by LC-MS/MS analysis. Type of data set: ADME, organism-based. As to conditions: in vivo. Also on record: dose 10 mg/kg, time infinity, route oral.
For data set [11], the system named is Mus musculus. Put plainly: (§7) Volume of distribution at steady state in Swiss albino mouse at 3 mg/kg, iv administered as single dose by LC-MS/MS analysis. Type of data set: ADME, organism-based. As to conditions: in vivo.
A short description of data set [12]: Ratio of total drug level in CNS to serum in Swiss albino mouse at 10 to 50 mg/kg, po administered as single dose upto 24 hrs by LC-MS/MS analysis. Type of data set: ADME, organism-based.
Data set [13] can be described thus: Ratio of total drug level in brain to plasma in Swiss albino mouse at 10 to 50 mg/kg, po administered as single dose upto 24 hrs by LC-MS/MS analysis. Type of data set: ADME, organism-based. Particulars: read-out: BPR.
A short description of data set [14]: as §1. Type of data set: ADME, organism-based. Particulars: Swiss albino, in vivo.
Data set [15] is described as follows: as §2. The data set is classed as ADME, organism-based. Set-up: dose 10 mg/kg, route oral. As to conditions: Swiss albino, in vivo.
Data set [16] in a line: as §3. The data set is classed as ADME, organism-based. Also on record: dose 3 mg/kg, time 0 - last, route intravenous. Particulars: Swiss albino, in vivo.
Data set [17] is described as follows: as §4. The data set is classed as ADME, organism-based. Also on record: dose 10 mg/kg, route oral, time 0 - last. As to conditions: Swiss albino, in vivo.
Data set [18] can be described thus: as §5. Type of data set: ADME, organism-based. As to conditions: Swiss albino, in vivo. Also on record: dose 3 mg/kg, time infinity, route intravenous.
Data set [19] in a line: as §6. The data set is classed as ADME, organism-based. Also on record: dose 10 mg/kg, time infinity, route oral. Particulars: Swiss albino, in vivo.
A short description of data set [20]: as §7. Type of data set: ADME, organism-based. Particulars: Swiss albino, in vivo, read-out: Vdss.
For data set [21], the system named is Mus musculus. Put plainly: Oral bioavailability in Swiss albino mouse at 10 mg/kg administered as single dose by LC-MS/MS analysis. The data set is classed as ADME, organism-based. Particulars: in vivo.

`Nc1ncnc2c1c(Sc1cccc(Cl)c1)nn2CC1CCNCC1`: the Papp in [1] is 2.76 ×10⁻⁶ cm/s; in data set [2] it was 25.6 ×10⁻⁶ cm/s. The same compound showed a pKa in [3] of 10.4.
Take `Cc1cccc(Oc2nn(C(C)(C)C)c3ncnc(N)c23)c1`: the Papp in [1] was 15 ×10⁻⁶ cm/s; in data set [2], 14.6 ×10⁻⁶ cm/s. Further, the Tmax in the data set with Mus musculus [4] was found to be 15 min. Besides, the C0 in [5] worked out at 2740 ng/mL. Further, in the data set with Mus musculus [6], the Cmax is 76.69 ng/mL. The AUClast in the data set on Mus musculus [7] stood at 619.33 ng·h/mL; in the data set on Mus musculus [8] it was 85.47 ng·h/mL. For the same compound, the area under the curve (AUC) in the data set with Mus musculus [9] stood at 625.04 ng·h/mL; in the data set on Mus musculus [10], 91.42 ng·h/mL. The Vdss in the data set with Mus musculus [11] is 2.32 L/kg.
With `Nc1ncnc2c1c(Oc1cccc(Cl)c1)nn2CC1CCNCC1(F)F` (configuration not stated), the values for the Papp in data set [1] and in data set [2] were 22.8 ×10⁻⁶ cm/s and 21.2 ×10⁻⁶ cm/s, respectively. Also, the pKa in [3] is 7.1. Besides, the time to peak (Tmax) in the data set with Mus musculus [4] was 15 min. This compound returned a C0 in data set [5] of 1210 ng/mL. Further, the maximum concentration (Cmax) in the data set with Mus musculus [6] turned out to be 1048.8 ng/mL. Further, the AUClast with Mus musculus [7] stood at 975.9 ng·h/mL; with Mus musculus [8] it was 3058.44 ng·h/mL. In addition, the exposure (AUC) with Mus musculus [10] worked out at 3547.95 ng·h/mL. In the data set with Mus musculus [11], this compound returned a Vdss of 3.68 L/kg. Also, the Kp at 24 h in [12] is 5.6; in [13] it was 1.3.
`CC(C)(C)n1nc(Cc2cccc(Cl)c2)c2c(N)ncnc21`: the Papp turned out to be 42.9 ×10⁻⁶ cm/s in data set [1] and 28.7 ×10⁻⁶ cm/s in data set [2]. In addition, in data set [14], the time of peak concentration (Tmax) is 15 min. Besides, in data set [5], the C0 turned out to be 6890 ng/mL. In [15], the highest level (Cmax) was 585 ng/mL. Also, the AUC(0-t) turned out to be 1080 ng·h/mL in data set [16] and 919 ng·h/mL in [17]. The area under the curve AUC(0-inf) is 1080 ng·h/mL in [18] and 931 ng·h/mL in data set [19]. Also, the Vd in [20] came out at 1.09 L/kg. This compound also displayed a F in the data set on Mus musculus [21] of 26%.
As to `CC(C)(C)n1nc(Oc2cccc(Cl)c2)c2c(N)ncnc21`, the results for the Papp in [1] and in [2] were 34.8 ×10⁻⁶ cm/s and 30.6 ×10⁻⁶ cm/s, respectively. The Tmax in the data set on Mus musculus [4] came out at 15 min. In addition, the C0 in data set [5] came out at 5470 ng/mL. For the same compound, in the data set on Mus musculus [6], the Cmax came out at 1136.36 ng/mL. Also, the AUClast in the data set on Mus musculus [8] was found to be 1172.75 ng·h/mL. Also, in the data set on Mus musculus [10], the area under the curve (AUC) came to 1279.2 ng·h/mL. Further, the Vdss in the data set with Mus musculus [11] was found to be 1.1 L/kg.
As for `Nc1ncnc2c1c(Oc1cccc(Cl)c1)nn2CC1CCNCC1`, the Papp in data set [1] came out at 1.07 ×10⁻⁶ cm/s; in [2], 9.58 ×10⁻⁶ cm/s. In [3], this compound had a pKa of 10.4. Moreover, the Tmax with Mus musculus [4] turned out to be 120 min. Also, the C0 in data set [5] stood at 536 ng/mL. The peak concentration (Cmax) with Mus musculus [6] worked out at 182.56 ng/mL. Also, the AUClast with Mus musculus [7] worked out at 449.57 ng·h/mL; in the data set with Mus musculus [8], 757.85 ng·h/mL. This compound gave an AUC in the data set on Mus musculus [10] of 891.24 ng·h/mL. In the data set on Mus musculus [11], this compound registered a Vdss of 19.59 L/kg.
Take `Nc1ncnc2c1c(Sc1cccc(Cl)c1)nn2CC1CCNCC1(F)F` (configuration not stated): the Papp in [1] was 27.1 ×10⁻⁶ cm/s; in data set [2] it was 25.3 ×10⁻⁶ cm/s. The compound also registered a pKa in data set [3] of 7.1.
